Results as given in publication PMC5654968 (NPJ Systems Biology and Applications, 2017).
Read-outs that look alike come from different tables or passages of the source.

How the values were obtained:
[1] = Plasma PK of major maoto compounds by LC-MS/MS after oral administration of maoto; assay type: in vivo, rat; settings: Sprague-Dawley, rat, plasma, po; for Cmax: read-out: Cmax; for Tmax: read-out: Tmax
Procedure: 1 (7:00-19:00). Rats were maintained and used for the experiments in accordance
2 with the Guidelines for the Care and Use of Laboratory Animals of Tsumura &
3 CO. All experimental procedures were carried out upon approval from the
4 Laboratory Animal Committee of Tsumura & CO.
8 administered to 16-h fasted rats (n=3). […]
14 and 4 g/10mL/kg) were determined by LC-MS/MS. Based on a literature search,
16 amygdalin, prunasin, scopoletin, l-ephedrine, d-pseudoephedrine,
1 Plasma PK data were analyzed by noncompartmental modeling using
2 Phoenix WinNonlin (version 6.3, Certara L.P., St. Louis, MO, USA) to determine
3 various PK constants including Cmax, tmax, t1/2, and AUC0–last. The t1/2 was divided
4 by loge2/ke, where ke is the rate constant of terminal elimination (at least three
5 data points on the descending linear limb). […]

[2] = assay type: in vivo, rat
Procedure: Distilled water and saline were administered as vehicle to rats in each control group. […] Plasma cytokine levels were measured by ELISA or multiplex immunoassay; common metabolites and lipid mediators were analyzed by GC-MS/MS and LC-MS/MS, respectively.
Pathway maps of lipid mediators were created by using CellDesigner 4.4 software (http://www.celldesigner.org). We evaluated the effects of the treatments on specific lipid mediators and categorized them according to COX, CYP and LOX pathways by Fisher’s exact test. The proinflammatory and anti-inflammatory indices were analyzed as described by Tam et al. with modification.[22]

[3] = PM/P (polyI:C+maoto vs polyI:C), 2h
[4] = PM/P (polyI:C+maoto vs polyI:C), 4h

SMILES | AUC(0-t) ([1]; 1 g/kg) [ng·h/mL] | half-life ([1]; 1 g/kg) [min] | Cmax ([1]; 1 g/kg) [ng/mL] | Tmax ([1]; 1 g/kg) [min] | AUC(0-t) ([1]; 2 g/kg) [ng·h/mL] | half-life ([1]; 2 g/kg) [min] | Cmax ([1]; 2 g/kg) [ng/mL] | Tmax ([1]; 2 g/kg) [min] | AUC(0-t) ([1]; 4 g/kg) [ng·h/mL] | half-life ([1]; 4 g/kg) [min] | Cmax ([1]; 4 g/kg) [ng/mL] | Tmax ([1]; 4 g/kg) [min] | log2FC of plasma level ([2]; M/C (maoto vs control), 2h) | log2FC of plasma level ([2]; M/C (maoto vs control), 4h) | log2FC of plasma level ([2]; P/C (polyI:C vs control), 2h) | log2FC of plasma level ([2]; P/C (polyI:C vs control), 4h) | log2FC of plasma level [2, 3] | log2FC of plasma level [2, 4] | log2FC of plasma level [2] | log2FC of plasma level ([2]; first value of an incomplete line, time (2h or 4h) not assignable)
N#C[C@H](O[C@@H]1O[C@H](CO[C@@H]2O[C@H](CO)[C@@H](O)[C@H](O)[C@H]2O)[C@@H](O)[C@H](O)[C@H]1O)c1ccccc1 [Amygdalin] | 346 | 78.6 | 101 | 15 | 1520 | 56.2 | 653 | 60 | 7610 | 148 | 5250 | 15 | – | – | – | – | – | – | – | –
O=C(O)/C=C/c1ccccc1 [Cinnamic acid] | 624 | – | 1060 | – | 2060 | 78 | 1280 | – | 5750 | 98.4 | 2120 | – | – | – | – | – | – | – | – | –
CC/C=C\C/C=C\C/C=C\C/C=C\C/C=C\C/C=C\CCC(=O)O [DHA, docosahexaenoic acid] | – | – | – | – | – | – | – | – | – | – | – | – | 0.46 | -0.10 | 0.22 | 0.09 | 0.05 | 0.03 | – | –
CC/C=C\C/C=C\C/C=C\C/C=C\C/C=C\CCCC(=O)O [EPA, eicosapentaenoic acid] | – | – | – | – | – | – | – | – | – | – | – | – | 0.56 | -0.10 | 0.28 | -0.05 | 0.04 | 0.03 | – | –
Oc1cc(O)c2c(c1)O[C@H](c1ccc(O)c(O)c1)[C@H](O)C2 [Epicatechin] | 4.24 | 303 | 1.82 | 30 | 2.78 | 122 | 1.95 | 15 | 6.92 | 209 | 8.34 | 15 | – | – | – | – | – | – | – | –
Oc1cc(O)c2c(c1)O[C@H](c1cc(O)c(O)c(O)c1)[C@H](O)C2 [Epigallocatechin] | 0.457 | 314 | 0.197 | 30 | 0.26 | 190 | 0.103 | 30 | 0.286 | 50 | 0.456 | 15 | – | – | – | – | – | – | – | –
COc1c(CC=C(C)C)c(O)cc2oc(=O)c(-c3ccc(O)cc3O)cc12 [Glycycoumarin] | 0.0105 | – | 0.0836 | 15 | 0.0227 | – | 0.0906 | 60 | 0.058 | – | 0.0753 | 15 | – | – | – | – | – | – | – | –
CCCCC/C=C\C\C=C/C=C/C=C/[C@@H](SC[C@H](N)C(=O)O)[C@@H](O)CCCC(=O)O [LTE4] | – | – | – | – | – | – | – | – | – | – | – | – | -0.95 | -1.00 | 1.04 | 0.58 | -0.91 | -0.51 | – | –
CCCCC/C=C\C\C=C/C=C/C=C/[C@@H](SCC(NC(C)=O)C(=O)O)[C@@H](O)CCCC(=O)O (stereo partly shown) [N-acetyl-LTE4] | – | – | – | – | – | – | – | – | – | – | – | – | -1.85 | -1.41 | 2.21 | 1.28 | -2.45 | -0.96 | – | –
CCCCC[C@H](O)/C=C/[C@H]1C(=O)C[C@H](O)[C@@H]1C/C=C\CCCC(=O)O [PGD2] | – | – | – | – | – | – | – | – | – | – | – | – | -0.26 | -0.58 | 0.28 | 0.92 | -0.11 | -1.25 | – | –
CC/C=C\C[C@H](O)/C=C/[C@H]1C(=O)C[C@H](O)[C@@H]1C/C=C\CCCC(=O)O [PGD3] | – | – | – | – | – | – | – | – | – | – | – | – | – | – | – | – | – | – | -0.55 | -0.03
CCCCC[C@H](O)/C=C/[C@H]1[C@H](O)CC(=O)[C@@H]1C/C=C\CCCC(=O)O [PGE2] | – | – | – | – | – | – | – | – | – | – | – | – | -0.31 | 0.22 | 0.59 | 0.59 | -0.15 | 0.22 | – | –
CCCCC[C@H](O)/C=C/[C@@H]1[C@@H](C/C=C\CCCC(=O)O)[C@@H](O)C[C@H]1O [PGF2α] | – | – | – | – | – | – | – | – | – | – | – | – | 0.30 | -0.20 | 0.24 | -0.04 | 0.14 | -0.13 | – | –
CCCCC[C@H](O)/C=C/[C@H]1OC(O)C[C@H](O)[C@@H]1C/C=C\CCCC(=O)O (stereo partly shown) [TXB2] | – | – | – | – | – | – | – | – | – | – | – | – | 1.36 | -0.87 | 0.70 | 0.28 | 0.92 | -0.46 | – | –
